# Test results reported in patent US11860161B2, “Detection and treatment of autoimmune disorders” (Seattle Children's Hospital, priority 2007, dated 2024).
# Entries after “also recorded” stand apart in the source; their conditions may differ. Where a SMILES comes first, the peptide text is derived from it. The star is where a group is joined. Cbz = O=C(OCc1ccccc1)*; CH2F = FC*
# Key:
# Mo = conditions: in vitro, prior study; cited from earlier work
# PBMC = PBMC cell death and apoptosis (Annexin V and PI) with caspase inhibitors; assay type: cell-based, human; conditions: 50 uM; control, SLE flare and SLE remission cultures; one day (FIG. 4B)
# Method: (§1) In order to determine which caspase (or caspases) is responsible for downmodulation of PD-L1 during active lupus, the effects of specific caspase inhibitors on PD-L1 expression in human APC were tested (Table IV). Control and SLE PBMC were incubated for one day in the presence of the individual caspase inhibitors at doses ranging from 10 uM to 50 uM (R&D Systems), with the appropriate level of DMSO as the carrier control (0.5% final concentration). Treated cells were assayed for cell death and apoptosis using Annexin V and PI (example shown in FIG. 4), as well as stained for cell-surface expression of PD-L1 on APC.
# The inhibitors enter living cells and bind irreversibly at the caspase active sites, preventing further proteolytic activity by the enzyme. After incubation with caspase inhibitors, PBMC were gated by forward and side scatter and analyzed for percent cell death and apoptosis using Annexin V and PI (see FIG. 10). […] However, higher doses of some caspase-specific inhibitors (50 uM), did alter PD-L1 levels, both in Mo and mDC (example shown in FIG. 11). Normal PBMC were incubated in medium with or without various caspase inhibitors, and PD-L1 protein levels assessed at day one. […]
# T lymphocytes = assay: Foxp3 expression in T lymphocytes of PBMC cultures treated with OPH; assay type: cell-based, human; conditions: 50 uM; healthy control and SLE cultures; three days later
# Method: PBMC were cultured as above and a duplicate well of each sample treated with 50 uM OPH. PD-L1 upregulation on APC was confirmed in these cultures, and an aliquot of each sample was incubated further in order to allow interaction of APC with autologous T cells in culture. Three days later, the cells were fixed and permeabilized, and the T lymphocytes were assayed for intracellular expression of the regulatory T cell protein, Foxp3.
# PD-L1 on APC = assay: PD-L1 surface expression on APC (Mo, mDC) of PBMC cultured with caspase inhibitors; assay type: cell-based, human
# Method: as §1
# (§2) PBMC were thawed, washed, and diluted to 1-2×10^6 cells/ml in culture medium consisting of RPMI 1640 with L-glutamine (CellGro), 10% heat-inactivated NB human serum (Valley Biomedical), 1% penicillin/streptomycin (CellGro), and 0.1% beta-mercaptoethanol. Cells were plated in round-bottom 96-well plates (Coming Costar) and incubated at 37° C. in a humidified cell chamber with 5% CO2. Some wells were treated with pan-/poly-caspase inhibitors at the time of plating: 50 uM Q- Val-Asp-(non-o-methylated)—OPh (OPH) or Z- Val-Ala-Asp-(beta-o-methyl)-fluroromethylketone (Z-VAD) (both from R&D Systems), or DMSO as the carrier control (0.5% final concentration).
# (§3) At the timepoints indicated, cells were surface-stained using fluorochrome- or biotin-conjugated monoclonal antibodies: anti-CD1c, (Miltenyi), anti-CD3, anti-PD-L1 (eBioscience), anti-CD11b, anti-CD11c, anti-CD14, anti-CD-86, anti-PD-L2 (Pharmingen/BD Biosciences), anti-CD45RO, anti-CD80, anti-CD83, and/or anti-HLA-DR (BioLegend), with isotype-matched, fluorochrome/biotin-labeled irrelevant monoclonal antibodies as controls. All samples were blocked using 0.5% human serum and anti-FeR antibody (Miltenyi) during staining. Cells were fixed using 2% paraformaldehyde in PBS after preliminary experiments indicated no effect of cell fixation on expression levels of PD-L1 and other surface markers. To assess apoptosis, some cultures were stained in parallel with Annexin V and propidium iodide (PI) (both from Becton Dickinson) as per the manufacturer's instructions. Flow cytometry was performed using a FACSCalibur or LSR II cytometer (Becton Dickinson), and data were analyzed using FlowJo software (Macintosh Version 6.3).
# PD-L2 = PD-L2 expression on APC with caspase inhibitors; assay type: cell-based, human; conditions: two healthy controls, through four days of culture (FIG. 5D)
# Method: as §2
# as §3, with “Cells were fixed using 2% paraformaldehyde in PBS after preliminary experiments indicated no effect of cell fixation on expression levels of PD-L1 and other surface markers. To assess apoptosis, some cultures were stained in parallel with Annexin V and propidium iodide (PI) (both from Becton Dickinson) as per the manufacturer's instructions.” left out
# [1] = test system: APC surface markers CD80/86; assay: Other APC surface markers (CD80/86 etc.) with caspase inhibitors; assay type: cell-based, human; conditions: PBMC from healthy controls, SLE flare, SLE remission (FIG. 5B)
# Method: as §2
# as §3, with “Cells were fixed using 2% paraformaldehyde in PBS after preliminary experiments indicated no effect of cell fixation on expression levels of PD-L1 and other surface markers. To assess apoptosis, some cultures were stained in parallel with Annexin V and propidium iodide (PI) (both from Becton Dickinson) as per the manufacturer's instructions.” left out
# leukocytes = conditions: cited from earlier work
# human macrophages = conditions: cited from earlier work
compound,measurement,setting,value
Sc1ncnc2nc[nH]c12 [6-mercaptopurine],effect on markers of Mo differentiation and maturation,Mo,no significant effect
"CC(C)[C@H](NC(=O)c1ccc2ccccc2n1)C(=O)N[C@@H](CC(=O)O)C(=O)COc1c(F)cccc1F [OPH, Q- Val-Asp-(non-o-methylated)—OPh]",apoptosis in PBMC,PBMC,reduces
same,level of Foxp3 expression (Foxp3 MFI and number of CD4+ cells expressing Foxp3),T lymphocytes,remained unchanged
same,PD-L1 expression on the surface of both Mo and mDC,"PD-L1 on APC; 50 uM, day one",increased
same,PD-L1 expression in Mo compared to untreated,"PD-L1 on APC; 50 uM, controls, SLE flare, SLE remission (FIG. 4C)",significantly increases
same,PD-L1 on APC from healthy controls,"PD-L1 on APC; CD80/86+ APC, one day (FIG. 7)",upregulated PD-L 1 further; also recorded: increased
same,PD-L1 on PBMC,PD-L1 on APC; FIG. 5A,increases
same,number of CD14int among PD-L1+ PBMC,PD-L1 on APC; FIG. 5A,increases
same,mean percentage of Mo expressing PD-L1,"PD-L1 on APC; SLE flare, 50 uM, untreated 45%",97%
same,mean percentage of mDC expressing PD-L1,"PD-L1 on APC; all three groups, 50 uM, P<0.013",more than doubled
same,increase of PD-L1 expression in immature mDC,"PD-L1 on APC; all three groups, 50 uM, p<0.02",two- to three-fold
same,PD-L1 levels in SLE flare APC,PD-L1 on APC; one day (FIG. 7),approached those of untreated control cells; also recorded: restored normal levels
same,PD-L2 expression,PD-L2,not increased
same,other APC surface markers,[1],does not increase
COC(=O)CC[C@H](NC(=O)[C@H](CC(=O)OC)NC(=O)OCc1ccccc1)C(=O)N[C@H](C(=O)N[C@@H](CC(=O)OC)C(=O)CF)C(C)C [Z-DEVD-fmk],PD-L1 levels,"PD-L1 on APC; normal PBMC, control mDC, day one (FIG. 11)",greatly increased
"COC(=O)C[C@H](NC(=O)[C@H](C)NC(=O)[C@@H](NC(=O)OCc1ccccc1)C(C)C)C(=O)CF [Z-VAD, Z- Val-Ala-Asp-(beta-o-methyl)-fluroromethylketone] (Cbz-Val-Ala-Asp(OMe)-CH2F)",reciprocal relationship between caspase activity and Mo PD-L1 expression,PD-L1 on APC; all PBMC treated,held true
same,PD-L2 expression,PD-L2,not increased
CCN(CC)CCCC(C)Nc1ccnc2cc(Cl)ccc12 (stereo not drawn) [chloroquine],effect on markers of Mo differentiation and maturation,Mo,no significant effect
CN(C)CCCN1c2ccccc2Sc2ccc(Cl)cc21 [chlorpromazine],caspase activation and apoptosis in leukocytes,leukocytes,activate caspases and trigger apoptosis
COc1c(C)c2c(c(O)c1C/C=C(\C)CCC(=O)OCCN1CCOCC1)C(=O)OC2 [mycophenolate mofetil],effect on markers of Mo differentiation and maturation,Mo,no significant effect
Infliximab: can cause a lupus-like syndrome in susceptible individuals,caspase activation and apoptosis in human macrophages,human macrophages,promote caspase activation and apoptosis
